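Tested at 5 concentrations; 48 h exposure; 96-well plates; endpoints linearly interpolated, else capped at highest concentration. GI50 = concentration required for 50% inhibition of growth. TGI marks complete inhibition of growth.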

Some test systems named below: NCI-H522 lung; HCT-15 colon; A549 NSCLC; MDA-MB-231 breast; OVCAR-4 ovarian; RXF 393 renal; COLO 205 colon; ACHN renal; MDA-MB-435; MOLT-4 leukemia.
Experiment in all cases: growth of human tumour cells (NCI), 48 h

For `CC(=O)NC1=C(C)C(=O)c2c(nc3n2CC[C@H]3OC(C)=O)C1=O`, the TGI in the experiment with NCI-H522 lung amounted to 3.73 µM; in the experiment with HCT-15 colon, 12.6 µM; with A549 NSCLC it was 24.8 µM; in the experiment on MDA-MB-231 breast it was 2.71 µM; in the experiment with OVCAR-4 ovarian, 3 µM; in the experiment on RXF 393 renal it was 3.12 µM. The TGI with COLO 205 colon was determined as 3.36 µM; with ACHN renal, 9.34 µM; with MDA-MB-435 it was 1.85 µM.

As for `O=C(O)/C=C/C(=O)O`, the TGI in the experiment on NCI-H522 lung, in the experiment with HCT-15 colon, in the experiment with A549 NSCLC, with MDA-MB-231 breast, with OVCAR-4 ovarian and with COLO 205 colon was over 100 µM in each case. Further, the TGI in the experiment on ACHN renal, in the experiment with MOLT-4 leukemia and in the experiment with MDA-MB-435 was over 100 µM in each case.

Consider `Nc1nc(SCCC/C=C/I)nc2c1ncn2C1OC(CO)C(O)C1O` (configuration not stated), for which the TGI with NCI-H522 lung, in the experiment with HCT-15 colon, in the experiment on A549 NSCLC, in the experiment with OVCAR-4 ovarian, in the experiment with COLO 205 colon and with ACHN renal was over 202 µM in each case. The molecule also showed a TGI with MOLT-4 leukemia of over 202 µM.

As to `O=C(O)c1ccc(Nc2nc3ccccc3nc2C(=O)O)cc1`, the TGI in the experiment on NCI-H522 lung, in the experiment with A549 NSCLC, with MDA-MB-231 breast, with OVCAR-4 ovarian, in the experiment with COLO 205 colon and in the experiment on ACHN renal was over 100 µM throughout. Moreover, the TGI in the experiment with MOLT-4 leukemia and in the experiment on MDA-MB-435 was over 100 µM each time.

`COc1ccc(C2c3cc4c(cc3OC(N3CCCCC3)C2C)OCO4)cc1` (configuration not stated): the TGI in the experiment with NCI-H522 lung, in the experiment on HCT-15 colon, with A549 NSCLC, with COLO 205 colon, in the experiment with ACHN renal and in the experiment on MOLT-4 leukemia was over 100 µM throughout. In the experiment with MDA-MB-435, this molecule gave a TGI of over 100 µM.

For `Cc1n(CC(=O)c2ccccc2)nc2sc(N)n[n+]12`, the TGI in the experiment with NCI-H522 lung, in the experiment on HCT-15 colon, in the experiment on A549 NSCLC, in the experiment on OVCAR-4 ovarian, in the experiment with RXF 393 renal and in the experiment on COLO 205 colon was over 100 µM throughout. Besides, the TGI with ACHN renal, in the experiment with MOLT-4 leukemia and in the experiment with MDA-MB-435 was over 100 µM each time.

Regarding `O=C(O)C1SCCS1`, the TGI with HCT-15 colon, in the experiment on A549 NSCLC, in the experiment with MDA-MB-231 breast, with OVCAR-4 ovarian, in the experiment with COLO 205 colon and with ACHN renal was over 100 µM in each case. The TGI in the experiment with MOLT-4 leukemia and in the experiment with MDA-MB-435 was over 100 µM throughout.

Consider `CC(=O)Nc1ccc(-c2nnc(SCC(=O)Nc3ccccc3C)o2)cc1`, for which the TGI with NCI-H522 lung, with HCT-15 colon, with A549 NSCLC, with OVCAR-4 ovarian, with RXF 393 renal and in the experiment on COLO 205 colon was over 100 µM in each case. For the same molecule, the TGI in the experiment with ACHN renal and with MOLT-4 leukemia was over 100 µM throughout.

`CC(C)CCC[C@@H](C)[C@H]1CCC2C3=CCC4C(=O)C=CC(=O)C4C3CC[C@@]21C` (some centres not stated): the GI50 is 0.803 µM with NCI-H522 lung; 0.235 µM in the experiment with HCT-15 colon; 0.0836 µM in the experiment on A549 NSCLC; 0.331 µM with MDA-MB-231 breast; 0.159 µM in the experiment with OVCAR-4 ovarian; 0.0545 µM with COLO 205 colon. The GI50 with MOLT-4 leukemia is 0.373 µM; with MDA-MB-435, 0.254 µM. Also, the TGI in the experiment on NCI-H522 lung is over 100 µM; with HCT-15 colon it was over 100 µM; with MDA-MB-231 breast, 1.32 µM; in the experiment with OVCAR-4 ovarian, 0.498 µM; in the experiment with COLO 205 colon it was 0.183 µM; in the experiment on MOLT-4 leukemia, over 100 µM. For the same molecule, the TGI with MDA-MB-435 stood at 1.15 µM.

`Clc1ncnc2c1ncn2CCCCCCCCCCCCn1cnc2c(Cl)ncnc21`: the TGI in the experiment with NCI-H522 lung was 2.87 µM; in the experiment on HCT-15 colon, 25.8 µM; with A549 NSCLC, 26.4 µM; in the experiment with OVCAR-4 ovarian, 23.3 µM; with RXF 393 renal it was 32.2 µM; in the experiment on COLO 205 colon, 29.1 µM. Further, the TGI with ACHN renal worked out at 27.9 µM; with MOLT-4 leukemia, 42.9 µM.

As for `O=C1/C(=C/c2ccco2)NC(=S)N1CN1CCOCC1`, the TGI in the experiment on HCT-15 colon, with A549 NSCLC, in the experiment on MDA-MB-231 breast, in the experiment with OVCAR-4 ovarian, in the experiment with COLO 205 colon and in the experiment with ACHN renal was over 100 µM throughout. The TGI in the experiment on MOLT-4 leukemia and in the experiment with MDA-MB-435 was over 100 µM throughout.

Consider `N#Cc1c(N2CCN(c3ccc([N+](=O)[O-])cc3)CC2)[n+](=O)c2ccc(Cl)cc2n1[O-]`, for which the TGI with NCI-H522 lung was 2.36 µM; with HCT-15 colon, 2.17 µM; with A549 NSCLC, over 24.4 µM; in the experiment with OVCAR-4 ovarian it was 9.52 µM; with RXF 393 renal it was over 22.7 µM; in the experiment on ACHN renal, 2.24 µM. Moreover, the TGI in the experiment on MOLT-4 leukemia came to 8.52 µM; in the experiment with MDA-MB-435 it was 8.07 µM.

Turning to `CC(=O)NC1=C(NCc2ccc(Cl)cc2)C(=O)c2ccccc2C1=O`, the TGI was 3.13 µM with NCI-H522 lung; 11.6 µM in the experiment with HCT-15 colon; over 50 µM in the experiment on A549 NSCLC; 13.4 µM in the experiment with OVCAR-4 ovarian; 10.5 µM in the experiment with RXF 393 renal; 11.4 µM in the experiment with COLO 205 colon. In addition, the TGI with ACHN renal is 6.13 µM; with MOLT-4 leukemia, over 50 µM.

For `COc1nc2[nH]ccc2c(=O)n1C`, the TGI in the experiment on HCT-15 colon is over 100 µM; with A549 NSCLC it was over 100 µM; in the experiment with OVCAR-4 ovarian it was 41.5 µM; in the experiment with RXF 393 renal, over 100 µM; with COLO 205 colon, over 100 µM; in the experiment on ACHN renal, over 100 µM. Besides, the TGI in the experiment with MOLT-4 leukemia is over 100 µM.

For the molecule `Cn1ccc(C(=O)NCCCCCNC(=O)c2ccn(C)c(=O)c2O)c(O)c1=O`, the TGI in the experiment with NCI-H522 lung, in the experiment on HCT-15 colon, in the experiment on A549 NSCLC, in the experiment on MDA-MB-231 breast, with OVCAR-4 ovarian and in the experiment with COLO 205 colon was over 100 µM in each case. The TGI in the experiment on ACHN renal and in the experiment on MDA-MB-435 was over 100 µM throughout.

Values taken from PubChem BioAssay (NCI).
